ChEMBL document CHEMBL4382233, “Discovery of novel arylethenesulfonyl fluorides as potential candidates against methicillin-resistant of Staphylococcus aureus (MRSA) for overcoming multidrug resistance of bacterial infections” (2019)
Converted amounts (≈) assume the structure as drawn.

Experiments:
Format in all cases: functional
Staphylococcus aureus [1] = test: Antibacterial activity against methicillin-resistant Staphylococcus aureus after overnight incubation by micro broth dilution analysis
Staphylococcus aureus [2] = test: Antibacterial activity against methicillin-resistant Staphylococcus aureus assessed as zone of inhibition at 50 ug/mL after 24 hrs by agar disc diffusion method; settings: read-out: IZ
[3] = test system: Staphylococcus haemolyticus; test: Antibacterial activity against methicillin-resistant Staphylococcus haemolyticus after overnight incubation by micro broth dilution analysis
[4] = test system: Staphylococcus haemolyticus; test: Antibacterial activity against methicillin-resistant Staphylococcus haemolyticus assessed as zone of inhibition at 50 ug/mL after 24 hrs by agar disc diffusion method; settings: read-out: IZ
[5] = test system: Staphylococcus epidermidis; test: Antibacterial activity against methicillin-resistant Staphylococcus epidermidis after overnight incubation by micro broth dilution analysis
[6] = test system: Staphylococcus epidermidis; test: Antibacterial activity against methicillin-resistant Staphylococcus epidermidis assessed as zone of inhibition at 20 ug/mL after 24 hrs by agar disc diffusion method; settings: read-out: IZ

| SMILES | MIC99 (Staphylococcus aureus [1]) [µg/mL] | zone of inhibition at 50 µg/mL (Staphylococcus aureus [2]) [mm] | MIC99 [3] [µg/mL] | zone of inhibition at 50 µg/mL [4] [mm] | MIC99 [5] [µg/mL] | zone of inhibition at 20 µg/mL [6] [mm] |
| --- | --- | --- | --- | --- | --- | --- |
| COc1ccc(Cl)cc1/C=C/S(=O)(=O)F | 51.1 (≈ 204 µM) | 5.1 | 47 (≈ 188 µM) | 5.2 | 40.4 (≈ 161 µM) | 5.2 |
| O=S(=O)(F)/C=C/C=C/c1ccc2ccccc2c1 | 58 (≈ 221 µM) | 3.3 | 51 (≈ 195 µM) | 4.5 | 63 (≈ 240 µM) | 5.4 |
| O=S(=O)(F)/C=C/c1ccc(-c2ccccc2)cc1 | 53.2 (≈ 203 µM) | 4.3 | 56.1 (≈ 214 µM) | 3.5 | 65.1 (≈ 248 µM) | 5.1 |
| CCc1ccc(/C=C/S(=O)(=O)F)cc1 | 45.1 (≈ 211 µM) | 5.1 | 60 (≈ 280 µM) | 3.5 | 56.2 (≈ 262 µM) | 6.1 |
| O=S(=O)(F)/C=C/c1ccc(I)cc1 | 48.2 (≈ 154 µM) | 5.2 | 47.6 (≈ 153 µM) | 4.4 | 50.6 (≈ 162 µM) | 5.2 |
| CC(C)(C)c1ccc(/C=C/C=C/S(=O)(=O)F)cc1 | 58.2 (≈ 217 µM) | 6.3 | 65.3 (≈ 243 µM) | 4.5 | 62.1 (≈ 232 µM) | 5.5 |
| Cc1ccc(S(=O)(=O)n2ccc3cc(/C=C/S(=O)(=O)F)ccc32)cc1 | 60.6 (≈ 160 µM) | 4.2 | 61 (≈ 161 µM) | 3.5 | 66 (≈ 174 µM) | 4.3 |
| O=S(=O)(F)/C=C/c1cccc2c1oc1ccccc12 | 17 (≈ 61.6 µM) | 6.3 | 47 (≈ 170 µM) | 3.3 | 67.5 (≈ 244 µM) | 3.5 |
| O=S(=O)(F)/C=C/C=C/c1ccccc1 | 56.2 (≈ 265 µM) | 6.2 | 58.1 (≈ 274 µM) | 5.2 | 52 (≈ 245 µM) | 6.2 |
| O=C(O)c1ccc(/C=C/S(=O)(=O)F)cc1 | 55.3 (≈ 240 µM) | 7.2 | 43.3 (≈ 188 µM) | 3.3 | 50.1 (≈ 217 µM) | 6.5 |
| N#Cc1cccc(/C=C/C=C/S(=O)(=O)F)c1 | 41.2 (≈ 174 µM) | 3.5 | 51.2 (≈ 216 µM) | 5.1 | 50 (≈ 211 µM) | 4.5 |
| O=S(=O)(F)/C=C/c1cccc(-c2ccccc2)c1 | 40.1 (≈ 153 µM) | 7.8 | 40.2 (≈ 153 µM) | 5.2 | 44.1 (≈ 168 µM) | 5.5 |
| COc1ccc(/C=C/S(=O)(=O)F)cc1 | 48.1 (≈ 222 µM) | 52 | 68.2 (≈ 315 µM) | 6.3 | 51.3 (≈ 237 µM) | 60.4 |
| CCOC(=O)c1cccc(/C=C/S(=O)(=O)F)c1 | 40.6 (≈ 157 µM) | 4.2 | 50.2 (≈ 194 µM) | 4.3 | 53 (≈ 205 µM) | 4.2 |
| Cc1ccc(/C=C/C=C/S(=O)(=O)F)cc1 | 60.6 (≈ 268 µM) | 4.1 | 51 (≈ 225 µM) | 4.3 | 57 (≈ 252 µM) | 4.1 |
